Assay results published in PubChem BioAssay AID1963423 (Molecular Pharmacology Branch, DTP, NCI, 2024).

System: 439559-082-T-J2-PDC complex spheroid growth
Assay: Anticancer human tumor 439559-082-T-J2-PDC patient-derived colon adenocarcinoma cell line growth inhibition [Asc]
Settings: for IC50: curve of first compound; for viability, T/C: stronger effect = lower value
Method in brief: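 Complex solid-tumor spheroids incorporating human endothelial and mesenchymal stem cells received single agents or combinations over half-log dilution ranges anchored to clinical Cmax.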
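Further: spheroids exposed to agents for 7 days starting day 3 after seeding.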
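Wherever viability, T/C is given: percent of DMSO vehicle control viability with 100% = vehicle.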

`C=C(F)C(=O)N1CCN(c2nc(OCC3CCCN3C)nc3c2CCN(c2cccc4cccc(Cl)c24)C3)CC1CC#N` (centres undefined) + CNC(C)C(=O)NC1CN(S(=O)(=O)c2cccc(S(=O)(=O)N3CCC4CCC(C(=O)NC(c5ccccc5)c5ccccc5)N4C(=O)C(NC(=O)C(C)NC)C3)c2)CCC2CCC(C(=O)NC(c3ccccc3)c3ccccc3)N2C1=O was tested. Which IC50 (second compound 0.00316 µM) did it give?
Its IC50 is 5.51 µM.

What about the IC50 (second compound 0.01 µM) of the same molecule?
Its IC50 is 4.85 µM.

And the IC50 (second compound 0.0316 µM)?
The IC50 was 4.25 µM.

And the IC50 (second compound 0.1 µM)?
The IC50 was 4.11 µM.

What about the IC50 (second compound 0.316 µM) of the same molecule?
The IC50 was 3.52 µM.

What about the IC50 (second compound 1 µM) of the same molecule?
The IC50 was 2.56 µM.

What about the viability, T/C (second compound 0.00316 µM, first compound 0.0316 µM) of the same molecule?
The viability, T/C was 101%.

What about the viability, T/C (second compound 0.00316 µM, first compound 0.1 µM) of the same molecule?
Its viability, T/C is 104%.

What about the viability, T/C (second compound 0.00316 µM, first compound 0.316 µM) of the same molecule?
The viability, T/C was 103%.

What about the viability, T/C (second compound 0.00316 µM, first compound 1 µM) of the same molecule?
Its viability, T/C is 85.6%.

What about the viability, T/C (second compound 0.00316 µM, first compound 3.16 µM) of the same molecule?
Its viability, T/C is 94.4%.

And the viability, T/C (second compound 0.00316 µM, first compound 10 µM)?
Its viability, T/C is 2.3%.

And the viability, T/C (second compound 0.01 µM, first compound 0.0316 µM)?
The viability, T/C was 98.8%.

And the viability, T/C (second compound 0.01 µM, first compound 0.1 µM)?
The viability, T/C was 100%.

What about the viability, T/C (second compound 0.01 µM, first compound 0.316 µM) of the same molecule?
Its viability, T/C is 94.9%.

And the viability, T/C (second compound 0.01 µM, first compound 1 µM)?
The viability, T/C was 101%.

And the viability, T/C (second compound 0.01 µM, first compound 3.16 µM)?
The viability, T/C was 77.3%.

What about the viability, T/C (second compound 0.01 µM, first compound 10 µM) of the same molecule?
The viability, T/C was 3.86%.

What about the viability, T/C (second compound 0.0316 µM, first compound 0.0316 µM) of the same molecule?
Its viability, T/C is 102%.

What about the viability, T/C (second compound 0.0316 µM, first compound 0.1 µM) of the same molecule?
The viability, T/C was 102%.

What about the viability, T/C (second compound 0.0316 µM, first compound 0.316 µM) of the same molecule?
Its viability, T/C is 104%.

What about the viability, T/C (second compound 0.0316 µM, first compound 1 µM) of the same molecule?
The viability, T/C was 104%.

What about the viability, T/C (second compound 0.0316 µM, first compound 3.16 µM) of the same molecule?
The viability, T/C was 67.2%.

And the viability, T/C (second compound 0.0316 µM, first compound 10 µM)?
Its viability, T/C is 0.24%.

What about the viability, T/C (second compound 0.1 µM, first compound 0.0316 µM) of the same molecule?
The viability, T/C was 96.1%.

And the viability, T/C (second compound 0.1 µM, first compound 0.1 µM)?
The viability, T/C was 101%.

What about the viability, T/C (second compound 0.1 µM, first compound 0.316 µM) of the same molecule?
The viability, T/C was 92.2%.

What about the viability, T/C (second compound 0.1 µM, first compound 1 µM) of the same molecule?
Its viability, T/C is 87.2%.

What about the viability, T/C (second compound 0.1 µM, first compound 3.16 µM) of the same molecule?
The viability, T/C was 64.3%.

What about the viability, T/C (second compound 0.1 µM, first compound 10 µM) of the same molecule?
The viability, T/C was 3.14%.

And the viability, T/C (second compound 0.316 µM, first compound 0.0316 µM)?
The viability, T/C was 95.4%.

And the viability, T/C (second compound 0.316 µM, first compound 0.1 µM)?
The viability, T/C was 90.3%.

And the viability, T/C (second compound 0.316 µM, first compound 0.316 µM)?
Its viability, T/C is 83.4%.

And the viability, T/C (second compound 0.316 µM, first compound 1 µM)?
Its viability, T/C is 79%.

And the viability, T/C (second compound 0.316 µM, first compound 3.16 µM)?
Its viability, T/C is 56.3%.

And the viability, T/C (second compound 0.316 µM, first compound 10 µM)?
The viability, T/C was 0.25%.

What about the viability, T/C (second compound 1 µM, first compound 0.0316 µM) of the same molecule?
The viability, T/C was 84.5%.

What about the viability, T/C (second compound 1 µM, first compound 0.1 µM) of the same molecule?
The viability, T/C was 75.3%.

What about the viability, T/C (second compound 1 µM, first compound 0.316 µM) of the same molecule?
The viability, T/C was 82.5%.

And the viability, T/C (second compound 1 µM, first compound 1 µM)?
The viability, T/C was 66.4%.

What about the viability, T/C (second compound 1 µM, first compound 3.16 µM) of the same molecule?
Its viability, T/C is 46.3%.

What about the viability, T/C (second compound 1 µM, first compound 10 µM) of the same molecule?
The viability, T/C was 0.27%.

How did the IC50 (second compound 0.00316 µM) turn out when `CCN1C(C(=O)NC23CCC(C(=O)O)(CC2)CC3)C(c2cccc(Cl)c2F)C2(C(=O)Nc3cc(Cl)ccc32)C12CCCCC2` (centres undefined) + CNC(C)C(=O)NC1CN(S(=O)(=O)c2cccc(S(=O)(=O)N3CCC4CCC(C(=O)NC(c5ccccc5)c5ccccc5)N4C(=O)C(NC(=O)C(C)NC)C3)c2)CCC2CCC(C(=O)NC(c3ccccc3)c3ccccc3)N2C1=O was run?
Its IC50 is over 3 µM.

What about the IC50 (second compound 0.01 µM) of the same molecule?
The IC50 was over 3 µM.

What about the IC50 (second compound 0.0316 µM) of the same molecule?
The IC50 was over 3 µM.

What about the IC50 (second compound 0.1 µM) of the same molecule?
The IC50 was over 3 µM.

And the IC50 (second compound 0.316 µM)?
Its IC50 is over 3 µM.

And the IC50 (second compound 1 µM)?
The IC50 was over 3 µM.

What about the viability, T/C (second compound 0.00316 µM, first compound 0.00949 µM) of the same molecule?
The viability, T/C was 116%.

What about the viability, T/C (second compound 0.00316 µM, first compound 0.03 µM) of the same molecule?
The viability, T/C was 92.9%.

And the viability, T/C (second compound 0.00316 µM, first compound 0.0949 µM)?
Its viability, T/C is 107%.

What about the viability, T/C (second compound 0.00316 µM, first compound 0.3 µM) of the same molecule?
The viability, T/C was 106%.

And the viability, T/C (second compound 0.00316 µM, first compound 0.949 µM)?
The viability, T/C was 95.6%.

What about the viability, T/C (second compound 0.00316 µM, first compound 3 µM) of the same molecule?
The viability, T/C was 107%.

And the viability, T/C (second compound 0.01 µM, first compound 0.00949 µM)?
Its viability, T/C is 109%.

What about the viability, T/C (second compound 0.01 µM, first compound 0.03 µM) of the same molecule?
The viability, T/C was 103%.

What about the viability, T/C (second compound 0.01 µM, first compound 0.0949 µM) of the same molecule?
The viability, T/C was 100%.

And the viability, T/C (second compound 0.01 µM, first compound 0.3 µM)?
Its viability, T/C is 99.8%.

What about the viability, T/C (second compound 0.01 µM, first compound 0.949 µM) of the same molecule?
The viability, T/C was 113%.

And the viability, T/C (second compound 0.01 µM, first compound 3 µM)?
Its viability, T/C is 96.5%.

What about the viability, T/C (second compound 0.0316 µM, first compound 0.00949 µM) of the same molecule?
The viability, T/C was 103%.

What about the viability, T/C (second compound 0.0316 µM, first compound 0.03 µM) of the same molecule?
Its viability, T/C is 106%.

What about the viability, T/C (second compound 0.0316 µM, first compound 0.0949 µM) of the same molecule?
Its viability, T/C is 103%.

What about the viability, T/C (second compound 0.0316 µM, first compound 0.3 µM) of the same molecule?
Its viability, T/C is 102%.

What about the viability, T/C (second compound 0.0316 µM, first compound 0.949 µM) of the same molecule?
Its viability, T/C is 115%.

And the viability, T/C (second compound 0.0316 µM, first compound 3 µM)?
The viability, T/C was 110%.

And the viability, T/C (second compound 0.1 µM, first compound 0.00949 µM)?
The viability, T/C was 95.9%.

And the viability, T/C (second compound 0.1 µM, first compound 0.03 µM)?
The viability, T/C was 101%.

What about the viability, T/C (second compound 0.1 µM, first compound 0.0949 µM) of the same molecule?
Its viability, T/C is 117%.

What about the viability, T/C (second compound 0.1 µM, first compound 0.3 µM) of the same molecule?
Its viability, T/C is 99.1%.

And the viability, T/C (second compound 0.1 µM, first compound 0.949 µM)?
Its viability, T/C is 105%.

And the viability, T/C (second compound 0.1 µM, first compound 3 µM)?
Its viability, T/C is 107%.

And the viability, T/C (second compound 0.316 µM, first compound 0.00949 µM)?
The viability, T/C was 105%.

What about the viability, T/C (second compound 0.316 µM, first compound 0.03 µM) of the same molecule?
Its viability, T/C is 94.2%.

What about the viability, T/C (second compound 0.316 µM, first compound 0.0949 µM) of the same molecule?
The viability, T/C was 91.3%.

What about the viability, T/C (second compound 0.316 µM, first compound 0.3 µM) of the same molecule?
The viability, T/C was 85.3%.

What about the viability, T/C (second compound 0.316 µM, first compound 0.949 µM) of the same molecule?
The viability, T/C was 96.5%.

What about the viability, T/C (second compound 0.316 µM, first compound 3 µM) of the same molecule?
The viability, T/C was 87.1%.

What about the viability, T/C (second compound 1 µM, first compound 0.00949 µM) of the same molecule?
Its viability, T/C is 78.6%.

What about the viability, T/C (second compound 1 µM, first compound 0.03 µM) of the same molecule?
The viability, T/C was 87.7%.

And the viability, T/C (second compound 1 µM, first compound 0.0949 µM)?
The viability, T/C was 76.8%.

And the viability, T/C (second compound 1 µM, first compound 0.3 µM)?
Its viability, T/C is 75.8%.

What about the viability, T/C (second compound 1 µM, first compound 0.949 µM) of the same molecule?
Its viability, T/C is 88.8%.

And the viability, T/C (second compound 1 µM, first compound 3 µM)?
The viability, T/C was 79.5%.
